In this assay the test system is gene expression in tert keratinocytes. The assay is described as follows: Signature free connectivity mapping (C-map) similarity to CAST. The conditions noted are these: Concentration Tested 0.01% (wt. %); Fisher Discriminant Analysis. From the text:
Signature Free Method of Querying Perturbagens Using Connectivity Mapping to Test Similarity Among Different Varieties of Perturbagens
The signature-free query method describes methodologies for identifying gene expression similarities among different perturbagens, such as cosmetic actives and/or natural extracts in an already existing tert connectivity map database. “Connectivity map” and “C-map” refer broadly to devices, systems, articles of manufacture, and methodologies for identifying relationships between cellular phenotypes or cosmetic conditions, gene expression, and perturbagens, such as cosmetic actives. […]
The tert C-map database consists of normalized gene expression data of approximately 3200 perturbagens. […] For each individual perturbagen, the output of the normalization includes an expression value for each probe analyzed in the gene expression profiling experiment. […]
The data matrix is analyzed using multivariate statistical analysis. Though described herein with reference to regularized Fisher Discriminant Analysis using a kernel version of the projection matrix, those of ordinary skill in the art will readily appreciate that other forms of multivariate statistical analysis may be employed in other embodiments. […]

As to Madecassoside, the “Similarity (distance) Score from CAST” value is recorded as −0.031.
The figure for `C[C@H]1[C@H](C)CC[C@]2(C(=O)O)CC[C@]3(C)C(=CC[C@@H]4[C@@]5(C)C[C@@H](O)[C@H](O)[C@@](C)(CO)[C@@H]5[C@H](O)C[C@]43C)[C@H]12` [Madecassic acid] is 0.770.

(Values after patent publication US10980851B2, “Topical skincare compositions comprising Centella asiatica selected triterpenes” (The Procter & Gamble Company, priority 2018, dated 2021).)
